Experimental data published in PubChem BioAssay (NCI).
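Assay format: 96-well plates, 48-hour exposure. Definition used: TGI = concentration required for complete inhibition of growth.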

What was measured:
Assay in all cases: NCI anticancer screen, dose series, 48 h
CAKI-1 renal = tested on: CAKI-1 renal
NCI-H460 lung = tested on: NCI-H460 lung
HCT-116 colon = tested on: HCT-116 colon
SF-295 CNS = tested on: SF-295 CNS
OVCAR-5 ovarian = tested on: OVCAR-5 ovarian
RPMI-8226 leukemia = tested on: RPMI-8226 leukemia
DU-145 prostate = tested on: DU-145 prostate
MCF7 breast = tested on: MCF7 breast
U251 CNS = tested on: U251 CNS
786-0 renal = tested on: 786-0 renal
EKVX NSCLC = tested on: EKVX NSCLC
UO-31 renal = tested on: UO-31 renal
KM12 colon = tested on: KM12 colon
HS 578T breast = tested on: HS 578T breast
M14 melanoma = tested on: M14 melanoma
RXF 393 renal = tested on: RXF 393 renal
SW-620 colon = tested on: SW-620 colon
A498 renal = tested on: A498 renal
UACC-62 melanoma = tested on: UACC-62 melanoma
HL-60(TB) leukemia = tested on: HL-60(TB) leukemia
SK-MEL-28 melanoma = tested on: SK-MEL-28 melanoma
OVCAR-4 ovarian = tested on: OVCAR-4 ovarian
MALME-3M melanoma = tested on: MALME-3M melanoma
NCI-H522 lung = tested on: NCI-H522 lung
MDA-MB-231 breast = tested on: MDA-MB-231 breast
SK-MEL-2 melanoma = tested on: SK-MEL-2 melanoma
T-47D breast = tested on: T-47D breast
HT29 colon = tested on: HT29 colon
SR leukemia = tested on: SR leukemia
COLO 205 colon = tested on: COLO 205 colon
NCI-H23 lung = tested on: NCI-H23 lung
TK-10 renal = tested on: TK-10 renal
SK-OV-3 ovarian = tested on: SK-OV-3 ovarian
UACC-257 melanoma = tested on: UACC-257 melanoma
SNB-19 CNS = tested on: SNB-19 CNS
HCT-15 colon = tested on: HCT-15 colon
OVCAR-3 ovarian = tested on: OVCAR-3 ovarian
NCI/ADR-RES ovarian = tested on: NCI/ADR-RES ovarian
SF-268 CNS = tested on: SF-268 CNS
PC-3 prostate = tested on: PC-3 prostate
HCC-2998 colon = tested on: HCC-2998 colon
HOP-92 NSCLC = tested on: HOP-92 NSCLC
LOX IMVI melanoma = tested on: LOX IMVI melanoma
K-562 leukemia = tested on: K-562 leukemia
SF-539 CNS = tested on: SF-539 CNS
BT-549 breast = tested on: BT-549 breast
MDA-N = tested on: MDA-N
MDA-MB-435 = tested on: MDA-MB-435
NCI-H226 lung = tested on: NCI-H226 lung
HOP-62 NSCLC = tested on: HOP-62 NSCLC
IGROV1 ovarian = tested on: IGROV1 ovarian
SNB-75 CNS = tested on: SNB-75 CNS
ACHN renal = tested on: ACHN renal
A549 NSCLC = tested on: A549 NSCLC
OVCAR-8 ovarian = tested on: OVCAR-8 ovarian
SK-MEL-5 melanoma = tested on: SK-MEL-5 melanoma
SN12C renal = tested on: SN12C renal
CCRF-CEM leukemia = tested on: CCRF-CEM leukemia

## O=C1c2ccccc2NC(c2cc(Cl)cc(Cl)c2O)N1CCc1ccccn1 (configuration not stated)
CAKI-1 renal
  TGI: > 100 µM
NCI-H460 lung
  TGI: > 100 µM
HCT-116 colon
  TGI: > 100 µM
SF-295 CNS
  TGI: > 100 µM
OVCAR-5 ovarian
  TGI: > 100 µM
RPMI-8226 leukemia
  TGI: > 100 µM
DU-145 prostate
  TGI: > 100 µM
MCF7 breast
  TGI: > 100 µM
U251 CNS
  TGI: > 100 µM
786-0 renal
  TGI: > 100 µM
EKVX NSCLC
  TGI: > 100 µM
UO-31 renal
  TGI: > 100 µM
KM12 colon
  TGI: > 100 µM
HS 578T breast
  TGI: > 100 µM
M14 melanoma
  TGI: > 100 µM
RXF 393 renal
  TGI: > 100 µM
SW-620 colon
  TGI: > 100 µM
A498 renal
  TGI: > 100 µM
UACC-62 melanoma
  TGI: > 100 µM
HL-60(TB) leukemia
  TGI: > 100 µM
SK-MEL-28 melanoma
  TGI: > 100 µM
OVCAR-4 ovarian
  TGI: 98.9 µM
MALME-3M melanoma
  TGI: > 100 µM
NCI-H522 lung
  TGI: > 100 µM
MDA-MB-231 breast
  TGI: > 100 µM
SK-MEL-2 melanoma
  TGI: > 100 µM
T-47D breast
  TGI: 69.8 µM
HT29 colon
  TGI: > 100 µM
SR leukemia
  TGI: > 100 µM
COLO 205 colon
  TGI: > 100 µM
NCI-H23 lung
  TGI: > 100 µM
TK-10 renal
  TGI: > 100 µM
SK-OV-3 ovarian
  TGI: > 100 µM
UACC-257 melanoma
  TGI: > 100 µM
SNB-19 CNS
  TGI: > 100 µM
HCT-15 colon
  TGI: > 100 µM
OVCAR-3 ovarian
  TGI: > 100 µM
NCI/ADR-RES ovarian
  TGI: > 100 µM
SF-268 CNS
  TGI: > 100 µM
PC-3 prostate
  TGI: > 100 µM
HCC-2998 colon
  TGI: > 100 µM
HOP-92 NSCLC
  TGI: > 100 µM
LOX IMVI melanoma
  TGI: > 100 µM
K-562 leukemia
  TGI: > 100 µM
SF-539 CNS
  TGI: > 100 µM
BT-549 breast
  TGI: > 100 µM
MDA-N
  TGI: > 100 µM
MDA-MB-435
  TGI: > 100 µM
NCI-H226 lung
  TGI: > 100 µM
HOP-62 NSCLC
  TGI: > 100 µM
IGROV1 ovarian
  TGI: > 100 µM
SNB-75 CNS
  TGI: > 100 µM
ACHN renal
  TGI: > 100 µM
A549 NSCLC
  TGI: > 100 µM
OVCAR-8 ovarian
  TGI: > 100 µM
SK-MEL-5 melanoma
  TGI: > 100 µM
SN12C renal
  TGI: > 100 µM

## Cn1c(NN)nc(-c2ccc([N+](=O)[O-])cc2)c(C#N)c1=O
CAKI-1 renal
  TGI: 61.6 µM
NCI-H460 lung
  TGI: 36.4 µM
HCT-116 colon
  TGI: 25.4 µM
SF-295 CNS
  TGI: 29.9 µM
OVCAR-5 ovarian
  TGI: 42.9 µM
RPMI-8226 leukemia
  TGI: > 100 µM
DU-145 prostate
  TGI: 30 µM
MCF7 breast
  TGI: 31.9 µM
U251 CNS
  TGI: 30.8 µM
786-0 renal
  TGI: 27.2 µM
EKVX NSCLC
  TGI: 44.1 µM
UO-31 renal
  TGI: 33.8 µM
KM12 colon
  TGI: 30.1 µM
HS 578T breast
  TGI: 32.9 µM
M14 melanoma
  TGI: 25 µM
RXF 393 renal
  TGI: 28 µM
SW-620 colon
  TGI: 25.2 µM
UACC-62 melanoma
  TGI: 29 µM
HL-60(TB) leukemia
  TGI: > 100 µM
SK-MEL-28 melanoma
  TGI: 25 µM
OVCAR-4 ovarian
  TGI: 30.8 µM
MALME-3M melanoma
  TGI: 29.7 µM
NCI-H522 lung
  TGI: 29.9 µM
MDA-MB-231 breast
  TGI: 28.4 µM
CCRF-CEM leukemia
  TGI: > 100 µM
SK-MEL-2 melanoma
  TGI: 41.3 µM
T-47D breast
  TGI: 30.9 µM
HT29 colon
  TGI: 28.7 µM
SR leukemia
  TGI: 43.8 µM
COLO 205 colon
  TGI: 47.7 µM
NCI-H23 lung
  TGI: 26.2 µM
TK-10 renal
  TGI: 27.4 µM
SK-OV-3 ovarian
  TGI: 28.2 µM
UACC-257 melanoma
  TGI: 29.1 µM
SNB-19 CNS
  TGI: 26.3 µM
HCT-15 colon
  TGI: 42.4 µM
OVCAR-3 ovarian
  TGI: 34.3 µM
NCI/ADR-RES ovarian
  TGI: > 100 µM
SF-268 CNS
  TGI: 31.1 µM
PC-3 prostate
  TGI: 43.5 µM
HCC-2998 colon
  TGI: 26.5 µM
LOX IMVI melanoma
  TGI: 35.2 µM
K-562 leukemia
  TGI: > 100 µM
BT-549 breast
  TGI: 25.5 µM
MDA-N
  TGI: 24.9 µM
MDA-MB-435
  TGI: 32.8 µM
NCI-H226 lung
  TGI: 28.7 µM
HOP-62 NSCLC
  TGI: 27.1 µM
IGROV1 ovarian
  TGI: 39.9 µM
SNB-75 CNS
  TGI: 34.7 µM
ACHN renal
  TGI: 24.7 µM
A549 NSCLC
  TGI: 43.4 µM
OVCAR-8 ovarian
  TGI: 42.3 µM
SK-MEL-5 melanoma
  TGI: 17.3 µM
SN12C renal
  TGI: 29 µM
